Results on 3 molecules are retold here after the NIST ThermoML archive (doi:10.1021/je020053r).

The mass density is the mass of a sample divided by its volume. By refractive index is commonly meant a measure of how strongly the sample bends light.

For series [1] the following is noted: 293.15 K; 101.33 kPa; Liquid.
The nature of series [2]: refractive index (Na D-line) (dimensionless). To be noted: 293.15 K; 101.33 kPa; Liquid; Standard Abbe refractometry.

SMILES strings stand for the structures. ± gives the expanded uncertainty stated by the source.

In the case of `O=Cc1ccco1` [2-furaldehyde], the mass density in series [1] is given as 1128.5 ± 15 kg/m3. Still for that read-out and setting: the value for `CCCCCC` [hexane] was 659.3 ± 5 kg/m3. `O` [water]: in series [2], the refractive index is recorded as 1.333 ± 0.0007.
